pIC50: −log10 of the molar value. Positions of bridges follow the written chain, without caps; N, C: chain ends. Non-standard residues stand in square brackets, D forms with d. Residues, ends and D or L forms follow the SMILES beside them. *: point of attachment. hPhe(3-Cl-4-CF3) = N[C@@H](CCc1ccc(C(F)(F)F)c(Cl)c1)C(=O)O; hPhe(3-F,4-CF3) = N[C@@H](CCc1ccc(C(F)(F)F)c(F)c1)C(=O)O; 3Oxa8azabicyclo(3.2.1)octane = C1CC2COCC1N2*; NMePhe(4-Me) = CN[C@@H](Cc1ccc(C)cc1)C(=O)O; hPhe(4-Cl) = N[C@@H](CCc1ccc(Cl)cc1)C(=O)O; NMeAla(cPent) = CN[C@@H](CC1CCCC1)C(=O)O; NMeGly(cPent) = CN[C@H](C(=O)O)C1CCCC1; NMeCha = CN[C@@H](CC1CCCCC1)C(=O)O; NMeChg = CN[C@H](C(=O)O)C1CCCCC1; N(CH2CH2)2CF2 = FC1(F)CCN(*)CC1; NMeD = CN[C@@H](CC(=O)O)C(=O)O; NMeL = CN[C@@H](CC(C)C)C(=O)O; NMeV = CN[C@H](C(=O)O)C(C)C; NMeAbu = CC[C@H](NC)C(=O)O; NMeS = CN[C@@H](CO)C(=O)O; Morpholide = C1CN(*)CCO1; NMeA = CN[C@@H](C)C(=O)O; Pyrrolidide = C1CCN(*)C1; Ac5c = NC1(C(=O)O)CCCC1; Aze = O=C(O)[C@@H]1CCN1; Sar = CNCC(=O)O; Propyl = CCC*
Columns and labels:
[1] = system: Human pancreatic cancer cell line AsPC-1; test: Measurement of AsPC-1 cell growth inhibition (AsPC-1 CGI); assay type: cell-based; conditions: 96 h
How it was run: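 AsPC-1 cells in 15% FBS RPMI-1640 were exposed to test compound for 96 hours at 37° C, with CellTiter-Glo as endpoint.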

[2] = molecular target: T1, Kras and SOS1 (biotin-tagged human Kras loaded with GDP, His-tagged human SOS1) (Homo sapiens, UniProt P01116, G12D); test: Protein-protein interaction inhibition between Kras and SOS1 (KrasGl2D-SOS PPI) using AlphaScreen; assay type: binding; conditions: AlphaScreen; biotin-tagged human Kras loaded with GDP, His-tagged human SOS1; read-out: KRAS G12D-SOS PPI IC50
T1 construct: made in house; host or cells: E. coli (stated for Kras only)
T1 sequence (P01116 1-188 isoform P01116-2 G12D): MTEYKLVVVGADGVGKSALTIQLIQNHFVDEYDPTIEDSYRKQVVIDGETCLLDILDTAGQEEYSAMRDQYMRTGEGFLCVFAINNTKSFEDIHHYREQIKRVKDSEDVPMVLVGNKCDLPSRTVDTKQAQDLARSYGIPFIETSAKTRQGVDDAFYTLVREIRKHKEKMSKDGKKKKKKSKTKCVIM
How it was run: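 Read-out is acceptor-bead light at 520-620 nm, arising when 680 nm-irradiated nickel donor beads pass singlet oxygen to streptavidin acceptors. The bead pair links His-tagged SOS1 with biotin-tagged, GDP-bound Kras from E. coli.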

With `CC[C@H](C)[C@@H]1NC(=O)[C@H](CC(C)C)N(C)C(=O)C[C@@H](C(=O)N2C3CCC2COC3)N(C)C(=O)[C@H](C(C)C)N(C)C(=O)C2(CCCC2)NC(=O)[C@@H]2CCCN2C(=O)[C@H](CCc2ccc(C(F)(F)F)c(Cl)c2)NC(=O)CN(C)C(=O)[C@H](CC2CCCCC2)N(C)C(=O)CN(C)C(=O)CN(C)C1=O` [Compound 1954] ([NMeL]I[Sar][Sar][NMeCha][Sar][hPhe(3-Cl-4-CF3)]P[Ac5c][NMeV][NMeD]-{3Oxa8azabicyclo(3.2.1)octane}; lactam N-11) the pIC50 [1] was 6.30 to 7.00 and the pIC50 [2] was 8.64.

With `CC[C@H](C)[C@@H]1NC(=O)[C@H](CC(C)C)N(C)C(=O)C[C@@H](C(=O)N(C)C)N(C)C(=O)[C@H](C2CCCC2)N(C)C(=O)C2(CCCC2)NC(=O)[C@H](CC(=O)N2CCC(F)(F)CC2)N(C)C(=O)[C@H](CCc2ccc(C(F)(F)F)c(Cl)c2)NC(=O)CN(C)C(=O)[C@H](CC2CCCCC2)N(C)C(=O)[C@@H]2CCN2C(=O)[C@H](C)N(C)C1=O` [Compound 1955] ([NMeL]I[NMeA][Aze][NMeCha][Sar][hPhe(3-Cl-4-CF3)][NMeD](N(CH2CH2)2CF2)[Ac5c][NMeGly(cPent)][NMeD]-NMe2; lactam N-11) the pIC50 [1] was 6.30 to 7.00 and the pIC50 [2] was 8.82.

Work on `CCCOC[C@H]1C(=O)N(C)CC(=O)N[C@@H](CCc2ccc(C(F)(F)F)c(Cl)c2)C(=O)N2CCC[C@H]2C(=O)NC2(CCCC2)C(=O)N(C)[C@@H](C2CCCCC2)C(=O)N(C)[C@H](C(=O)N2C3CCC2COC3)CC(=O)N(C)[C@@H](CC)C(=O)N[C@@H]([C@@H](C)CC)C(=O)N(C)CC(=O)N(C)CC(=O)N1C` [Compound 1956] ([NMeAbu]I[Sar][Sar][NMeS](Propyl)[Sar][hPhe(3-Cl-4-CF3)]P[Ac5c][NMeChg][NMeD]-{3Oxa8azabicyclo(3.2.1)octane}; lactam N-11) yielded a pIC50 [1] of 6.30 to 7.00 and a pIC50 [2] of 9.12.

Work on `CC[C@H](C)[C@@H]1NC(=O)[C@H](CC(C)C)N(C)C(=O)C[C@@H](C(=O)N2C3CCC2COC3)N(C)C(=O)[C@H](C2CCCCC2)N(C)C(=O)C2(CCCC2)NC(=O)[C@@H]2CCCN2C(=O)[C@H](CCc2ccc(C(F)(F)F)c(F)c2)NC(=O)CN(C)C(=O)[C@H](CC2CCCCC2)N(C)C(=O)CN(C)C(=O)CN(C)C1=O` [Compound 1957] ([NMeL]I[Sar][Sar][NMeCha][Sar][hPhe(3-F,4-CF3)]P[Ac5c][NMeChg][NMeD]-{3Oxa8azabicyclo(3.2.1)octane}; lactam N-11) yielded a pIC50 [1] of 6.30 to 7.00 and a pIC50 [2] of 8.92.

For `CC[C@H](C)[C@@H]1NC(=O)[C@H](CC)N(C)C(=O)C[C@@H](C(=O)N2CCCC2)N(C)C(=O)[C@H](C2CCCCC2)N(C)C(=O)C2(CCCC2)NC(=O)[C@@H]2CCCN2C(=O)[C@H](CCc2ccc(C(F)(F)F)c(Cl)c2)NC(=O)CN(C)C(=O)[C@H](CC2CCCCC2)N(C)C(=O)CN(C)C(=O)CN(C)C1=O` [Compound 1958] ([NMeAbu]I[Sar][Sar][NMeCha][Sar][hPhe(3-Cl-4-CF3)]P[Ac5c][NMeChg][NMeD]-Pyrrolidide; lactam N-11), the pIC50 [1] was 7.30 to 7.70 and the pIC50 [2] was 9.35.

With `CC[C@H](C)[C@@H]1NC(=O)[C@H](CC)N(C)C(=O)C[C@@H](C(=O)N2C3CCC2COC3)N(C)C(=O)[C@H](C2CCCCC2)N(C)C(=O)C2(CCCC2)NC(=O)[C@@H]2CCCN2C(=O)[C@H](CCc2ccc(C(F)(F)F)c(Cl)c2)NC(=O)CN(C)C(=O)[C@H](Cc2ccc(C)cc2)N(C)C(=O)CN(C)C(=O)CN(C)C1=O` [Compound 1963] ([NMeAbu]I[Sar][Sar][NMePhe(4-Me)][Sar][hPhe(3-Cl-4-CF3)]P[Ac5c][NMeChg][NMeD]-{3Oxa8azabicyclo(3.2.1)octane}; lactam N-11) the pIC50 [1] was 7.00 to 7.30 and the pIC50 [2] was 9.20.

In the case of `CC[C@H](C)[C@@H]1NC(=O)[C@H](CC(C)C)N(C)C(=O)C[C@@H](C(=O)N2CCOCC2)N(C)C(=O)[C@H](C2CCCCC2)N(C)C(=O)C2(CCCC2)NC(=O)[C@@H]2CCCN2C(=O)[C@H](CCc2ccc(C(F)(F)F)c(F)c2)NC(=O)CN(C)C(=O)[C@H](CC2CCCCC2)N(C)C(=O)CN(C)C(=O)CN(C)C1=O` [Compound 1965] ([NMeL]I[Sar][Sar][NMeCha][Sar][hPhe(3-F,4-CF3)]P[Ac5c][NMeChg][NMeD]-Morpholide; lactam N-11), the pIC50 [1] was 7.00 to 7.30 and the pIC50 [2] was 9.26.

In the case of `CC[C@H](C)[C@@H]1NC(=O)[C@H](CC(C)C)N(C)C(=O)C[C@@H](C(=O)N2CCCC2)N(C)C(=O)[C@H](C2CCCCC2)N(C)C(=O)C2(CCCC2)NC(=O)[C@@H]2CCCN2C(=O)[C@H](CCc2ccc(Cl)cc2)NC(=O)CN(C)C(=O)[C@H](CC2CCCCC2)N(C)C(=O)CN(C)C(=O)CN(C)C1=O` [Compound 1968] ([NMeL]I[Sar][Sar][NMeCha][Sar][hPhe(4-Cl)]P[Ac5c][NMeChg][NMeD]-Pyrrolidide; lactam N-11), the pIC50 [1] was 7.00 to 7.30 and the pIC50 [2] was 8.92.

`CC[C@H](C)[C@@H]1NC(=O)[C@H](CC(C)C)N(C)C(=O)C[C@@H](C(=O)N2CCCC2)N(C)C(=O)[C@H](C2CCCCC2)N(C)C(=O)C2(CCCC2)NC(=O)[C@@H]2CCCN2C(=O)[C@H](CCc2ccc(C(F)(F)F)c(Cl)c2)NC(=O)CN(C)C(=O)[C@H](CC2CCCC2)N(C)C(=O)CN(C)C(=O)CN(C)C1=O` [Compound 1969] ([NMeL]I[Sar][Sar][NMeAla(cPent)][Sar][hPhe(3-Cl-4-CF3)]P[Ac5c][NMeChg][NMeD]-Pyrrolidide; lactam N-11) showed a pIC50 [1] of 7.00 to 7.30 and a pIC50 [2] of 9.21.
